Source: ChEMBL document CHEMBL5512629, “Insight into small-molecule inhibitors targeting extracellular nucleotide pyrophosphatase/phosphodiesterase1 for potential multiple human diseases” (Eur J Med Chem, 2024)
One block for each molecule: values may come before it.

Tests used:
[1] = target: T1, Ectonucleotide pyrophosphatase/phosphodiesterase family member 1 (Homo sapiens, UniProt P22413); test: Inhibition of ENPP1 (unknown origin)
T1 sequence (P22413 whole entry): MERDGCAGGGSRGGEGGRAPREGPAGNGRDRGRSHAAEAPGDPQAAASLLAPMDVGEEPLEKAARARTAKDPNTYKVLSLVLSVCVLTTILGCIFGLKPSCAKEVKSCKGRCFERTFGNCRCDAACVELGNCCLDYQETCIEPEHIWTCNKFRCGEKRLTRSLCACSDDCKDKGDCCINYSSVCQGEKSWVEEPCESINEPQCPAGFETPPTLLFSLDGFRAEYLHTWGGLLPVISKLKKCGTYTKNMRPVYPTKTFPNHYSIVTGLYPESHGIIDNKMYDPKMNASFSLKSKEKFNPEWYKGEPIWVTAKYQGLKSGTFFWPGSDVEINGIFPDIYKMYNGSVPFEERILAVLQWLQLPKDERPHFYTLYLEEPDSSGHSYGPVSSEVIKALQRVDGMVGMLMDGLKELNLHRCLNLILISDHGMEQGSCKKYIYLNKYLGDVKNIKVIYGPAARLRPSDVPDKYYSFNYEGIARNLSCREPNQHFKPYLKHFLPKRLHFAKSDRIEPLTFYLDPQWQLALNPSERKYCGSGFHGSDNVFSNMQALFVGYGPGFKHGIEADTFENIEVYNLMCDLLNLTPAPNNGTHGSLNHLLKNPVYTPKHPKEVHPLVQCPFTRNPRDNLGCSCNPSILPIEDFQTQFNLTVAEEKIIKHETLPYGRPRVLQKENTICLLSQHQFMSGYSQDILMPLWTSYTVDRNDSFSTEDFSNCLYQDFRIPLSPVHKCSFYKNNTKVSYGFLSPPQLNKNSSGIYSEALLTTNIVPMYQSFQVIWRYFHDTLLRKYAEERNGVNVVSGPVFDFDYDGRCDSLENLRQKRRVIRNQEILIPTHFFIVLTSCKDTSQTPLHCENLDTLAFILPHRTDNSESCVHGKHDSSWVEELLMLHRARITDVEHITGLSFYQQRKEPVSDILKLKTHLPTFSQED

[2] = target: T1, Ectonucleotide pyrophosphatase/phosphodiesterase family member 1; test: Binding affinity to human ENPP1 assessed as inhibition constant
[3] = target: T1, Ectonucleotide pyrophosphatase/phosphodiesterase family member 1; test: Binding affinity to ENPP1 (unknown origin) assessed as inhibition constant
[4] = target: T1, Ectonucleotide pyrophosphatase/phosphodiesterase family member 1; test: Inhibition of human ENPP1
[5] = Oral bioavailability in mouse; format: ADME, organism-based; conditions: in vivo

Compound: COc1ccc(NC(=O)CSc2nc3c(C)c(C#N)ncc3[nH]2)cc1O
- IC50 [1]: 2.06 µM

Compound: Cc1nc2ncnn2c(N(C)C)c1Cc1cccc(N)c1
- IC50 [1]: 260 µM

Compound: O=C(/C=C/c1ccc(O)c(O)c1)O[C@H](Cc1ccc(O)c(O)c1)C(=O)O [ROSMARINIC ACID]
- Ki [2]: 0.0269 µM

Compound: Nc1ncnc2c1ncn2[C@@H]1O[C@H](COP(=O)(O)CP(=O)(O)OP(O)(O)=S)[C@@H](O)[C@H]1O
- Ki [3]: 20 µM

Other lines, results leading:

- IC50 [4]: 0.36 µM
Compound: COc1cc2cc(-n3cc(C)c4ccccc43)n3c4ccccc4c(C)c3c2cc1OC

- Ki [2]: < 0.002 µM
Compound: COc1cccc2c(N3CCC(CCP(=O)(O)O)CC3)ncnc12

- bioavailability [5]: 65%
Compound: Cn1nc(Cc2ccc(NS(N)(=O)=O)cc2)c2ccccc2c1=O
